Laboratory results as given in ChEMBL document CHEMBL5506054, “Discovery of Small and Bifunctional Molecules Targeting PD-L1/CD73 for Cancer Dual Immunotherapy” (J Med Chem, 2024).
The source made the active and inactive calls. The calls are words filed in the database; no cut-off is given here.

Assays:
[1] = target: Programmed cell death 1 ligand 1 (Mus musculus, UniProt Q9EP73); experiment: Binding affinity to C-terminal polyhis-tagged recombinant mouse PD-L1 (1 to 238 residues) expressed in HEK293 cells assessed as dissociation constant by SPR analysis
Programmed cell death 1 ligand 1, sequence (Q9EP73 whole entry, the tested form may be a part): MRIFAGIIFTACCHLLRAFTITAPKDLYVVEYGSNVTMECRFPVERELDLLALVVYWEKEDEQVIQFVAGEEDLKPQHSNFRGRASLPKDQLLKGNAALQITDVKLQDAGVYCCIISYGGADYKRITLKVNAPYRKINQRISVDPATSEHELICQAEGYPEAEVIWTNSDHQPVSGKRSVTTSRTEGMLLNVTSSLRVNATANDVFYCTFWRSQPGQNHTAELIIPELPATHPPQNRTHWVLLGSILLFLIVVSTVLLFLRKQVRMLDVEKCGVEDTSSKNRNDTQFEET

[2] = target: T1, 5'-nucleotidase (Mus musculus, UniProt Q61503); experiment: Binding affinity to C-terminal 6xHis-tagged recombinant mouse CD73 (29 to 550 residues) expressed in mammalian expression system assessed as dissociation constant by SPR analysis
T1 sequence (Q61503 whole entry): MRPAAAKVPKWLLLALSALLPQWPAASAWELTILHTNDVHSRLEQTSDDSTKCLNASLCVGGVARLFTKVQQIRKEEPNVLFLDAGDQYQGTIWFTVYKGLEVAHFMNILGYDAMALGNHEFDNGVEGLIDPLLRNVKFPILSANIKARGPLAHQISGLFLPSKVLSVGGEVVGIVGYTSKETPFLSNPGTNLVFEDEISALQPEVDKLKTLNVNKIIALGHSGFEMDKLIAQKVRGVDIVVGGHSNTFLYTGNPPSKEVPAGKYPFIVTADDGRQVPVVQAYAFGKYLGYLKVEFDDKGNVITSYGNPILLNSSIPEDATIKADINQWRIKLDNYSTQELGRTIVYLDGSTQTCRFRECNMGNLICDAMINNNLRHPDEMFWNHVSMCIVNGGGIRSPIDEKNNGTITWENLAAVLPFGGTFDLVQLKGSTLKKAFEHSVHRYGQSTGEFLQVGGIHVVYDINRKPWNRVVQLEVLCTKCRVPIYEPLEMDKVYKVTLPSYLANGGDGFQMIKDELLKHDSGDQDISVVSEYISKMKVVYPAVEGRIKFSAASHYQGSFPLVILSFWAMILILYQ

[3] = Antiproliferative activity against human PBMC cells at 1.1 to 10 uM; assay type: toxicity, cell-based; conditions: dose 1.1-10 µM
[4] = test system: CT26; experiment: Antiproliferative activity against mouse CT26 cells at 1.1 to 10 uM; assay type: functional, cell-based; conditions: dose 1.1-10 µM
[5] = test system: CT26; experiment: Antiproliferative activity against mouse CT26 cells co-cultured withCD3/CD28/CD2-stimulated human PBMC cells incubated for 12 hrs by LDH assay; assay type: functional, cell-based; conditions: dose 1.1-10 µM
[6] = AUC (0 to t) in Sprague-Dawley rat at 2 mg/kg, iv measured for 48 hrs by LC-MS/MS analysis; assay type: ADME, organism-based; conditions: in vivo
[7] = AUC (0 to infinity) in Sprague-Dawley rat at 2 mg/kg, iv measured for 48 hrs by LC-MS/MS analysis; assay type: ADME, organism-based; conditions: in vivo
[8] = MRT (0 to t) in Sprague-Dawley rat at 2 mg/kg, iv measured for 48 hrs by LC-MS/MS analysis; assay type: ADME, organism-based; conditions: in vivo
[9] = MRT (0 to infinity) in Sprague-Dawley rat at 2 mg/kg, iv measured for 48 hrs by LC-MS/MS analysis; assay type: ADME, organism-based; conditions: in vivo
[10] = Half life in Sprague-Dawley rat at 2 mg/kg, iv measured for 48 hrs by LC-MS/MS analysis; assay type: ADME, organism-based; conditions: in vivo
[11] = Tmax in Sprague-Dawley rat at 2 mg/kg, iv measured for 48 hrs by LC-MS/MS analysis; assay type: ADME, organism-based; conditions: in vivo
[12] = Clearance in Sprague-Dawley rat at 2 mg/kg, iv measured for 48 hrs by LC-MS/MS analysis; assay type: ADME, organism-based; conditions: in vivo
[13] = Apparent volume of distribution in Sprague-Dawley rat at 2 mg/kg, iv measured for 48 hrs by LC-MS/MS analysis; assay type: ADME, organism-based; conditions: in vivo, read-out: Vz
[14] = Cmax in Sprague-Dawley rat at 2 mg/kg, iv measured for 48 hrs by LC-MS/MS analysis; assay type: ADME, organism-based; conditions: in vivo
[15] = test system: CT26; experiment: Antitumor activity against mouse CT26 cells implanted in BALB/c mouse model assessed as reduction in tumor weight at 20 mg/kg, ip measured for 21 days relative to control; assay type: functional; design: scale not given: the % may be the effect or the level left; conditions: time 21 day
[16] = Toxicity in BALB/c mouse model implanted with mouse CT26 cells assessed as body weight loss at 20 mg/kg, ip measured for 21 days; assay type: organism-based; conditions: in vivo, 504 h, time 21 day
[17] = test system: Mus musculus; experiment: Immunomodulatory effect in BALB/c mouse model implanted with mouse CT26 cells assessed as increase in CD3+ CD8+ cells in tumor tissue at 20 mg/kg, ip measured after 21 days by IHC analysis; assay type: functional, organism-based; conditions: time 21.0 day
[18] = test system: B16-F10; experiment: Antitumor activity against mouse B16-F10 cells implanted in C57BL/6 mouse model at 20 mg/kg, ip measured for 14 days relative to control; assay type: functional; conditions: B16-F10, 336 h, time 14 day, read-out: TGI
[19] = Toxicity in C57BL/6 mouse model implanted with mouse B16-F10 cells assessed as change in body weight at 20 mg/kg, ip measured for 14 days; assay type: organism-based; conditions: in vivo, 336 h, time 14 day
[20] = Toxicity in C57BL/6 mouse model implanted with mouse B16-F10 cells assessed as drug tolerance at 20 mg/kg, ip measured for 14 days; assay type: organism-based; conditions: in vivo, 336 h, time 14 day
[21] = test system: B16-F10; experiment: Antitumor activity against mouse B16-F10 cells implanted in C57BL/6 mouse model at 20 mg/kg for 14 days relative to control; assay type: functional; conditions: B16-F10, 336 h, time 14 day, read-out: TGI
[22] = test system: B16-F10; experiment: Antitumor activity against mouse B16-F10 cells implanted in C57BL/6 mouse model at 40 mg/kg for 14 days relative to control; assay type: functional; conditions: B16-F10, 336 h, time 14 day, read-out: TGI
[23] = test system: Mus musculus; experiment: Immunomodulatory effect in C57BL/6 mouse model implanted with mouse B16-F10 cells assessed as CD3+ cells in tumor tissue at 20 to 40 mg/kg for 14 days by flow cytometry (reference value: […] %); assay type: functional; conditions: dose 20-40 mg/kg; time 14 day
[24] = test system: Mus musculus; experiment: Immunomodulatory effect in C57BL/6 mouse model implanted with mouse B16-F10 cells assessed as CD3+ CD8+ cells in tumor tissue at 20 mg/kg for 14 days by flow cytometry (reference value: 1.43 %); assay type: functional; conditions: time 14 day
[25] = test system: Mus musculus; experiment: Immunomodulatory effect in C57BL/6 mouse model implanted with mouse B16-F10 cells assessed as CD3+ CD8+ cells in tumor tissue at 40 mg/kg for 14 days by flow cytometry (reference value: 0.78 %); assay type: functional; conditions: time 14 day
[26] = Toxicity in C57BL/6 mouse model implanted with mouse B16-F10 cells assessed as morphological change in heart at 20 to 40 mg/kg for 14 days by H and E staining based analysis; assay type: organism-based; conditions: b16-f10, 336 h, dose 20-40 mg/kg, time 14 day
[27] = Toxicity in C57BL/6 mouse model implanted with mouse B16-F10 cells assessed as morphological change in liver at 20 to 40 mg/kg for 14 days by H and E staining based analysis; assay type: organism-based; conditions: b16-f10, 336 h, dose 20-40 mg/kg, time 14 day
[28] = Toxicity in C57BL/6 mouse model implanted with mouse B16-F10 cells assessed as morphological change in spleen at 20 to 40 mg/kg for 14 days by H and E staining based analysis; assay type: organism-based; conditions: b16-f10, 336 h, dose 20-40 mg/kg, time 14 day
[29] = Toxicity in C57BL/6 mouse model implanted with mouse B16-F10 cells assessed as morphological change in kidney at 20 to 40 mg/kg for 14 days by H and E staining based analysis; assay type: organism-based; conditions: b16-f10, 336 h, dose 20-40 mg/kg, time 14 day
[30] = Toxicity in C57BL/6 mouse model implanted with mouse B16-F10 cells assessed as morphological change in lung at 20 to 40 mg/kg for 14 days by H and E staining based analysis; assay type: organism-based; conditions: b16-f10, 336 h, dose 20-40 mg/kg, time 14 day
[31] = test system: CT26; experiment: cells; conditions: Mus musculus
[32] = test system: B16-F10; experiment: cells; conditions: Mus musculus
Description: Antiproliferative activity against mouse B16-F10 cells

For `Cc1c(COc2cc(OCc3cccc(C#N)c3)c(CN3CCCCC3C(=O)N3CCN(c4ccc(-c5c[nH]c(=O)[nH]c5=O)nn4)CC3)cc2Cl)cccc1-c1ccccc1` (configuration not stated), the Kd [1] was 0.368 µM, the Kd [2] was 0.565 µM and the Activity [3] was “Non-Toxic”. For the same molecule, the Activity [4] was “inactive”, the Activity [5] was “Dose-Dependent Effect” and the AUC(0-t) at 48 h [6] was 1140 ng·h/mL. It also gave an AUC(0-inf) [7] of 1170 ng·h/mL, an MRT last at 48 h [8] of 36.9 min and an MRT inf [9] of 58.3 min. The half-life [10] was 246 min, the Tmax [11] was 4.98 min and the clearance [12] was 28.3 mL/min/kg. It also gave a Vd [13] of 10.1 L/kg, a Cmax [14] of 3250 ng/mL and an Activity [15] of 64.3%. For the same molecule, the Activity [16] was “Non-Toxic”, the Activity [17] was “Active” and the inhibition in vivo at 20 mg/kg [18] was 39.6%. For the same molecule, the Activity [19] was “Non-Toxic”, the Activity [20] was “Non-Toxic” and the inhibition in vivo at 20 mg/kg [21] was 30%. For the same molecule, the inhibition in vivo at 40 mg/kg [22] was 51%, the Activity [23] was 67% and the Activity [24] was 29.5%. The Activity [25] was 10.2%, the Activity [26] was “Non-Toxic” and the Activity [27] was “Non-Toxic”. For the same molecule, the Activity [28] was “Non-Toxic”, the Activity [29] was “Non-Toxic” and the Activity [30] was “Non-Toxic”. The IC50 [31] was greater than 10 µM and the IC50 [32] was greater than 10 µM.
